Data from article PMC9599461, “Stereoselectivity in the Membrane Transport of Phenylethylamine Derivatives by Human Monoamine Transporters and Organic Cation Transporters 1, 2, and 3” (Biomolecules, 2022).
Where two headings read alike, the source gives them in different places.

Experiments:
OCT2 [1] = target: T1, OCT2 (Homo sapiens, UniProt O15244); test: Stereoselective uptake into OCT2 (wild-type)-overexpressing HEK293 cells; conditions: for Clint ± SEM: OCT2, quotient of vmax over Km; for Vmax ± SEM: net uptake
T1 sequence (O15244 1-555 S270A): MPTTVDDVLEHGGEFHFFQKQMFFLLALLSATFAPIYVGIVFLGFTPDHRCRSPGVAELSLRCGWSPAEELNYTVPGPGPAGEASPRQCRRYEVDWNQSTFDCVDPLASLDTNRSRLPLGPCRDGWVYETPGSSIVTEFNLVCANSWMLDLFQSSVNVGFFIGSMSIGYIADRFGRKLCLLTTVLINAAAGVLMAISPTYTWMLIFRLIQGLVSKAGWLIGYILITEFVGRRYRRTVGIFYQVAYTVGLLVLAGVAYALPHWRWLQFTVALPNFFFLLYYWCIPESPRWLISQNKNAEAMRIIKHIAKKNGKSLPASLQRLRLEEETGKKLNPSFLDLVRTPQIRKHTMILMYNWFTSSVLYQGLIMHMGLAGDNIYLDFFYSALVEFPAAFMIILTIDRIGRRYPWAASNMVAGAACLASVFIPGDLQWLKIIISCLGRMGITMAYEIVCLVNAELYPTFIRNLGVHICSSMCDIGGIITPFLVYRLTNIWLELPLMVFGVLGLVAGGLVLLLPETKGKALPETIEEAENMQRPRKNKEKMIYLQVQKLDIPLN
Method: (§1) All transport experiments were carried out in HEK293 cells stably overexpressing human MATs or OCTs. […] All cells were regularly cultivated in DMEM supplemented with 10% (v/v) FCS, penicillin (100 U/mL) and streptomycin (100 μg/mL)and kept in culture for no longer than 30 passages.
(§2) For the uptake experiments, 300,000 cells were plated in poly-D-lysine precoated 24-well plates 48 h ahead of the transport experiment. On the day of experiment, cells were initially washed once with 37 °C pre-warmed HBSS+ (Hanks buffered salt solution supplemented with 10 mM HEPES) and subsequently incubated with the substrates dissolved in pre-warmed HBSS+ for exactly two minutes. Incubation was stopped by adding ice-cold HBSS+ followed by two washing steps. After this, cells were lysed with 80% acetonitrile containing 10 ng/mL milnacipran as internal standard for high-performance liquid chromatography coupled to tandem mass spectrometry (HPLC-MS/MS) analysis. For every experiment, two additional wells per cell line were lysed using RIPA buffer for protein quantification. Total protein was quantified using the bicinchoninic acid assay [42]. This was later used for normalization of the uptake data.
(§3) Intracellularly accumulated test substances were quantified by HPLC-MS/MS analysis using a Shimadzu Nexera HPLC system with a SIL-30AC autosampler, a CTO-20AC column oven, a LC-30AD pump, and a CBM-20A controller (Shimadzu, Kyoto, Japan). Stereoselective chromatography was carried out on a [sequence] CBH HPLC column (100 × 3 mm inner dimension with 5 μM particle size; Sigma-Aldrich, Darmstadt, Germany) with a corresponding 10 × 3 mm guard column. Reversed phased chromatography was carried out using an ammonium acetate (NH4Ac) buffered aqueous mobile phase with isopropyl alcohol (IPA) as organic solvent. […] The order of elution of the enantiomers was obtained from available reference literature [43] or by applying enantiopure reference compounds to the chiral HPLC. […] However, in every other case where the order of elution was available, the (R)-enantiomer eluted first. Given the structural similarity of the investigated substances and the fact that separation was performed on the same column with almost identical mobile phases, we assume that this order of elution for our compound set is always the (R)- before the (S)-enantiomer.
(§4) Detection was performed with an API 4000 tandem mass spectrometer (AB SCIEX, Darmstadt, Germany) operating in multiple-reaction-monitoring mode. Quantification was performed using the Analyst 1.6.2 software (AB SCIEX, Darmstadt, Germany) and quantified by comparison to standard curves with known concentrations.
(§5) All uptake data were normalized to protein content to account for variation in the number of seeded sells. Transporter-mediated net uptake was calculated by subtracting uptake into empty vector-transfected control cells from uptake into transporter-transfected cells. Kinetic parameters were then determined after non-linear regression following the Michaelis–Menten equation (v = vmax × [S]/(Km + [S])) using GraphPad Prism (Version 5.01 for Windows, GraphPad Software, La Jolla, CA, USA). Vmax refers to the maximum transport velocity and Km is defined as the substance concentration required to reach half of vmax. The intrinsic clearance Clint was calculated as the quotient of vmax over Km.
(§6) HEK293 cells stably overexpressing wild-type or mutant OCT2 were incubated with 100 μM racemic substance for two minutes.

OCT2 [2] = target: T2, OCT2 (Homo sapiens, UniProt O15244, S270A); test: as above; conditions: OCT2, ratio between enantiomers
T2 sequence (O15244 1-555 S270A): T1 sequence (O15244 1-555 S270A)
Method: as §1, §2, §3, §4, §5, §6

OCT1 = target: T3, OCT1 (Homo sapiens, UniProt O15245); test: Stereoselective uptake into OCT1-overexpressing HEK293 cells; conditions: for Clint ± SEM: quotient of vmax over Km; for Stereoselectivity Vmax: given as for (R) or for 1; for Vmax ± SEM: net uptake;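 as to all read-outs here: enantiomers quantified inside cells by chiral HPLC-MS/MS, uptake normalized to total protein from bicinchoninic acid assay, substrates applied in HBSS+ buffer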
T3 sequence (O15245 1-554): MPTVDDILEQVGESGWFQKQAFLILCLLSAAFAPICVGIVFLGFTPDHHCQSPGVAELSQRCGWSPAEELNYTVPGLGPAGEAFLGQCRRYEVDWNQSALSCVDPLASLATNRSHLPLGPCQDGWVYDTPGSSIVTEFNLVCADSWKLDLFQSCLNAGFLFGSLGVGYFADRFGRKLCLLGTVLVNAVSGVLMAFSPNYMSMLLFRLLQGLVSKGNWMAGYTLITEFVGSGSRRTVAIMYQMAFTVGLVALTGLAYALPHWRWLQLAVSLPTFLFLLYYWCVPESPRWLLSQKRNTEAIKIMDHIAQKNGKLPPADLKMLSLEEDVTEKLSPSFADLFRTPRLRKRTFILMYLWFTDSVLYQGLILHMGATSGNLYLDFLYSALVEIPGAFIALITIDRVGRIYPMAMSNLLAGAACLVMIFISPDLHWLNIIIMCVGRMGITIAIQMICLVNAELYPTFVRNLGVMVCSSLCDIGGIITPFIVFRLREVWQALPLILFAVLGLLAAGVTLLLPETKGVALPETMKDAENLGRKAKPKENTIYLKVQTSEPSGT

DAT = DAT (Homo sapiens, UniProt Q01959); test: Stereoselective uptake into DAT-overexpressing HEK293 cells; conditions: DAT;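 also: intracellular accumulation measured by chiral HPLC-MS/MS in stably transfected HEK293 cells, normalized to total protein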
NET = NET (Homo sapiens, UniProt P23975); test: Stereoselective uptake into NET-overexpressing HEK293 cells; conditions: for Vmax ± SEM: net uptake; for Clint ± SEM: quotient of vmax over Km; for Stereoselectivity ClInt / Stereoselectivity Vmax: given as for (S) or for 2;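 as to all read-outs here: intracellular enantiomers quantified in cell lysates by chiral HPLC-MS/MS after a 2 min substrate incubation, with uptake normalized to total cellular protein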
OCT2 A270S variant = test: Stereoselective uptake into OCT2 A270S variant-overexpressing HEK293 cells; conditions: OCT2 wild-type versus A270S, 100 μM racemic substance, two minutes;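 also: uptake into HEK293 cells stably overexpressing human OCT2 variants, intracellular enantiomers quantified by chiral HPLC-MS/MS and normalized to total protein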
OCT3 = target: T4, OCT3 (Homo sapiens, UniProt O75751); test: Stereoselective uptake into OCT3-overexpressing HEK293 cells; conditions: for Clint ± SEM: quotient of vmax over Km; for Stereoselectivity Vmax: given as for (R) or for 1;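 as to all read-outs here: intracellular accumulation in HEK293 cells measured by chiral HPLC-MS/MS after a 2 min substrate exposure at 37 °C, uptake normalized to total protein (bicinchoninic acid assay)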
T4 sequence (O75751 1-556): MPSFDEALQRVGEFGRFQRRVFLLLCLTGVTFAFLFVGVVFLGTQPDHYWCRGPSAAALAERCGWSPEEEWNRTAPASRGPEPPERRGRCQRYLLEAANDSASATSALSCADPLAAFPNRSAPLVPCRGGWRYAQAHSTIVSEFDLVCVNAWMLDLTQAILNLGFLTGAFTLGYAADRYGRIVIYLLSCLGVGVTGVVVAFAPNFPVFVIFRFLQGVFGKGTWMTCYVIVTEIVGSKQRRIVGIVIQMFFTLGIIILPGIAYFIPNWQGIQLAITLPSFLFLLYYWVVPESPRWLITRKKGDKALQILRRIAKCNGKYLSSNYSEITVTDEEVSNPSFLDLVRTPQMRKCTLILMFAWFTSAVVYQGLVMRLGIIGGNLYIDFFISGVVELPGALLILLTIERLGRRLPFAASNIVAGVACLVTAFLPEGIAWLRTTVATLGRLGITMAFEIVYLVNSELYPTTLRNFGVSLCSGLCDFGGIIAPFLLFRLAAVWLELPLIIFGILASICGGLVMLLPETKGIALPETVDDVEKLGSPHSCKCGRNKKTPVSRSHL

SERT [3] = target: T5, SERT (Homo sapiens, UniProt P31645); test: Stereoselective uptake into SERT-overexpressing HEK293 cells; conditions: for Clint ± SEM: SERT, quotient of vmax over Km;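 as to all read-outs here: uptake into HEK293 cells stably expressing human SERT over 2 min, enantiomers measured in cell lysate by chiral HPLC-MS/MS, normalized to total protein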
SERT [4] = target: T5, SERT
[5] = given as for (R) or for 1 (first-eluting)
[6] = OCT1, ratio between enantiomers
[7] = ratio between enantiomers, given as for (S) or for 2
[8] = HEK293 cells overexpressing human NET, racemic substrate, two minutes
[9] = OCT3, ratio between enantiomers
[10] = OCT3, ratio between enantiomers, given as for (R) or for 1 (first-eluting)
[11] = HEK293 cells overexpressing human OCT2, racemic substrate, two minutes
[12] = HEK293 cells overexpressing human OCT1, racemic substrate, two minutes

DAT, sequence (Q01959 whole entry): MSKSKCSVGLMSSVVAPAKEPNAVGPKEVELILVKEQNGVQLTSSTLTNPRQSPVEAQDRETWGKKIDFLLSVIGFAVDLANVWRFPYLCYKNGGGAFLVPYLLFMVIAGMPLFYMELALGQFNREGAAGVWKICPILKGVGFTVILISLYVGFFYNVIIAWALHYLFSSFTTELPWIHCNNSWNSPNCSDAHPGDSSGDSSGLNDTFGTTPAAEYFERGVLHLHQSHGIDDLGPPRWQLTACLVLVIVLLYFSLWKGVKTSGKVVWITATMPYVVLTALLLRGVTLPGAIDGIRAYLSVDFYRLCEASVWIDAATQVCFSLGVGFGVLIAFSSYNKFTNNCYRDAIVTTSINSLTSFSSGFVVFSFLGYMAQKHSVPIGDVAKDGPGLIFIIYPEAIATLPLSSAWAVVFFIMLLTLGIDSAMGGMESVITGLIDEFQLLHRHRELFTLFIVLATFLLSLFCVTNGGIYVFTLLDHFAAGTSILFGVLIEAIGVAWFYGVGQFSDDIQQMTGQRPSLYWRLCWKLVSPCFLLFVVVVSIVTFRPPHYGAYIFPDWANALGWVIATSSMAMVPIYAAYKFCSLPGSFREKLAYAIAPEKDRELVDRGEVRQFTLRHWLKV
NET, sequence (P23975 whole entry): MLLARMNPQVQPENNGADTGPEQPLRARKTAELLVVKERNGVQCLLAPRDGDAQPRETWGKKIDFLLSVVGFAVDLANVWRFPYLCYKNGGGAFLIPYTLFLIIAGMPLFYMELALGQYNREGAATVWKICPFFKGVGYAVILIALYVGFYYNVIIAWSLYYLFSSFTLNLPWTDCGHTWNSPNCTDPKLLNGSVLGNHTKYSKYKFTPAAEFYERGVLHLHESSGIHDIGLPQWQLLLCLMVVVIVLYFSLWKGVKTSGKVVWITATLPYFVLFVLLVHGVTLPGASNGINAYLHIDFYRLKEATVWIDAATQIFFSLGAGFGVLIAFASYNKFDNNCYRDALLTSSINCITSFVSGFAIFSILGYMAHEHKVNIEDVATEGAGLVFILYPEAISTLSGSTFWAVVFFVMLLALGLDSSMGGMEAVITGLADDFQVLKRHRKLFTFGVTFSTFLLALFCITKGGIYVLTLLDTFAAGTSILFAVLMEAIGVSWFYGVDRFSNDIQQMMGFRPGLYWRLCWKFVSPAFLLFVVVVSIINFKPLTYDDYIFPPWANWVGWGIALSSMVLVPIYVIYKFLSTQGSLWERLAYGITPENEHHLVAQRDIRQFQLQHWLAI
T5 sequence (P31645 whole entry): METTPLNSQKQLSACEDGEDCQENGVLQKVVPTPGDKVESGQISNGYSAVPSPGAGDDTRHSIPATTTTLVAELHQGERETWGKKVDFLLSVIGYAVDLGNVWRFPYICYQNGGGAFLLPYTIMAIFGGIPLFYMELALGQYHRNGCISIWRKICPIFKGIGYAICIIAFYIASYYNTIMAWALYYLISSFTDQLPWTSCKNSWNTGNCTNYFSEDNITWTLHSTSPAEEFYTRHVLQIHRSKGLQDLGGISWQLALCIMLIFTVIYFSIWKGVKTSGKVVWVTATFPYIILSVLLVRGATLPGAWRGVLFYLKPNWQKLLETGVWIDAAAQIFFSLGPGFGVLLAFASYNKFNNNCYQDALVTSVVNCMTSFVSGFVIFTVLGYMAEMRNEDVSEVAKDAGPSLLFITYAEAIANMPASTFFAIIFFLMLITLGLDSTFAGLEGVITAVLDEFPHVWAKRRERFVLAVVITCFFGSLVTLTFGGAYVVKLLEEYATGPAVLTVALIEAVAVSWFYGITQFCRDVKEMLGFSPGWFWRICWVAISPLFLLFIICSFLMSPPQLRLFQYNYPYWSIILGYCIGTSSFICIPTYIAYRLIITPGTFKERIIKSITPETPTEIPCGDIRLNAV

Structure (SMILES)	Clint ± SEM (OCT2 [1])	Stereoselectivity ClInt (OCT2 [2]; given as for (R) or for 1)	Stereoselectivity Vmax (OCT2 [2]; given as for (R) or for 1)	Stereoselectivity Km (OCT2 [2]; [5])	Clint ± SEM (OCT1; OCT1)	Stereoselectivity Vmax (OCT1; [6])	Stereoselectivity ClInt (OCT1; human, 2 min)	Vmax ± SEM (NET; [8])	Clint ± SEM (NET; NET)	Stereoselectivity ClInt (NET; NET, ratio between enantiomers)	Stereoselectivity Vmax (NET; NET, ratio between enantiomers)	Clint ± SEM (OCT3; OCT3)	Stereoselectivity Vmax (OCT3; [9])	Stereoselectivity Km (OCT3; [10])	Stereoselectivity Km (SERT [3])	Stereoselectivity Vmax (SERT [3])	Clint ± SEM (SERT [3])	Stereoselectivity ClInt (SERT [4]; human)	Vmax ± SEM (OCT2 [1]; [11])	Vmax ± SEM (OCT1; [12])	further results
NCC(O)c1cccc(O)c1 (single isomer, unassigned) [Norphenylephrine-2, Norphenylephrine]	26.07 mL × g Protein^−1 × min^−1	1.40 fold	2.19 fold	1.57 fold	3.84 mL × g Protein^−1 × min^−1	1.08 fold	1.05 fold	531 pmol × mg Protein^−1 × min^−1	230 mL × g Protein^−1 × min^−1	1.21 fold	1.25 fold	3.32 mL × g Protein^−1 × min^−1	3.88 fold	1.17 fold	1.20 fold	1.27 fold	1.83 mL × g Protein^−1 × min^−1	1.53 fold	–	–	Stereoselectivity Km (OCT1; OCT1, ratio between enantiomers, given as for (R) or for 1 (first-eluting)): 1.03 fold; Clint ± SEM (DAT; quotient of vmax over Km): 167 mL × g Protein^−1 × min^−1; Stereoselectivity ClInt (DAT; [7]): 1.29 fold; Stereoselectivity Vmax (DAT; [7]): 1.55 fold; Stereoselectivity Km (DAT; ratio between enantiomers, given as for (S) or for 2 (second-eluting)): 1.20 fold; Transporter selectivity (OCT2 A270S variant; given as for WT, listed as (S)-Norphenylephrine): 1.12 fold; Stereoselectivity ClInt (OCT3; human, 2 min): 3.32 fold
CNCC(O)c1ccc(O)c(OC)c1 (single isomer, unassigned) [Metanephrine-2, Metanephrine]	7.75 mL × g Protein^−1 × min^−1	2.66 fold	2.13 fold	–	6.97 mL × g Protein^−1 × min^−1	1.06 fold	1.16 fold	–	–	–	–	26.0 mL × g Protein^−1 × min^−1	1.19 fold	1.19 fold	1.09 fold	1.08 fold	0.57 mL × g Protein^−1 × min^−1	1.01 fold	528 pmol × mg Protein^−1 × min^−1	1018 pmol × mg Protein^−1 × min^−1	Stereoselectivity Km (OCT2 [2]; given as for (S) or for 2 (second-eluting)): 1.25 fold; Stereoselectivity Km (OCT1; OCT1, ratio between enantiomers, given as for (S) or for 2 (second-eluting)): 1.09 fold; Saturable net uptake (DAT; result in words): No saturable net uptake; Saturable net uptake (NET; NET, result in words): No saturable net uptake; Transporter selectivity (OCT2 A270S variant; given as for A270S, listed as (S)-Metanephrine): 1.47 fold; Stereoselectivity ClInt (OCT3; OCT3, ratio between enantiomers, given as for (R) or for 1 (also 1.00-fold for 1/2)): 1.00 fold
C[C@@H]1NCCc2cc(O)c(O)cc21 [Salsolinol-2, Salsolinol]	42.7 mL × g Protein^−1 × min^−1	–	–	1.04 fold	10.9 mL × g Protein^−1 × min^−1	–	–	151 pmol × mg Protein^−1 × min^−1	1.48 mL × g Protein^−1 × min^−1	1.19 fold	1.35 fold	3.15 mL × g Protein^−1 × min^−1	1.01 fold	–	1.85 fold	1.34 fold	0.71 mL × g Protein^−1 × min^−1	–	9160 pmol × mg Protein^−1 × min^−1	1426 pmol × mg Protein^−1 × min^−1	Km (OCT2 [1]; read-out: Km ± SEM, HEK293 cells overexpressing human OCT2, racemic substrate, two minutes, net uptake minus empty vector control): 213 µM; Stereoselectivity ClInt (OCT2 [2]; given as for (S) or for 2): 1.05 fold; Stereoselectivity Vmax (OCT2 [2]; given as for (S) or for 2): 1.01 fold; Stereoselectivity ClInt (OCT1; OCT1, ratio between enantiomers, given as for (R) or for 1 (also 1.00-fold for 1/2)): 1.00 fold; Km (OCT1; read-out: Km ± SEM, HEK293 cells overexpressing human OCT1, racemic substrate, two minutes, net uptake minus empty vector control): 131 µM; Stereoselectivity Km (NET; NET, ratio between enantiomers, given as for (S) or for 2 (second-eluting)): 1.13 fold; Km (NET; read-out: Km ± SEM, HEK293 cells overexpressing human NET, racemic substrate, two minutes, net uptake minus empty vector control): 102 µM; Transporter selectivity (OCT2 A270S variant; given as for WT, listed as (S)-Salsolinol): 1.45 fold; Stereoselectivity ClInt (OCT3): 1.21 fold; Vmax ± SEM (OCT3; HEK293 cells overexpressing human OCT3, racemic substrate, two minutes, net uptake): 697 pmol × mg Protein^−1 × min^−1; Stereoselectivity Km (OCT3; OCT3, ratio between enantiomers, given as for (S) or for 2 (second-eluting)): 1.20 fold; Km (OCT3; read-out: Km ± SEM, HEK293 cells overexpressing human OCT3, racemic substrate, two minutes, net uptake minus empty vector control): 222 µM; Vmax ± SEM (SERT [3]; HEK293 cells overexpressing human SERT, racemic substrate, two minutes, net uptake): 171 pmol × mg Protein^−1 × min^−1; Km (SERT [3]; read-out: Km ± SEM, HEK293 cells overexpressing human SERT, racemic substrate, two minutes, net uptake minus empty vector control): 239 µM; Stereoselectivity ClInt (SERT [4]): 2.48 fold
